These results are taken from article PMC13490399, “Induced ubiquitination of the partially disordered estrogen receptor alpha via a 14-3-3 directed molecular glue-PROTAC” (Nature Communications, 2026).

One may read the IC50 as the midpoint of a concentration-inhibition curve. A higher IC50 goes with a need for much substance.

Entries after “also recorded” stand apart in the source; their conditions may differ.

The target in data set [1] is 14-3-3/ERα complex (Homo sapiens, UniProt P03372+P31947). The data set can be described thus: FA 14-3-3 titration to ERα peptide with compound, with or without VCB (14-3-3/ERα stabilization). The data set is classed as binding. As to conditions: for stabilization of the 14-3-3/ERα interaction / stabilization of the 14-3-3/ERα complex with VCB, VCB recruitment: 1 µM compound; for stabilization of the 14-3-3/ERα interaction: without VCB; for stabilization of the 14-3-3/ERα complex with VCB, VCB recruitment: 5 µM VCB.

In data set [2] the target is His-tagged VCB complex / biotinylated 14-3-3γ / ERα peptide (Homo sapiens, UniProt P03372+P40337+P61981). Description: TR-FRET assay of VCB recruitment to 14-3-3γ with ERα peptide. The data set is classed as binding. As to conditions: 20 µM ERα peptide, 50 nM His-VCB, 50 nM biotinylated 14-3-3γ. In general terms: Time-resolved FRET reads energy transfer from a long-lived donor to a nearby acceptor.

The target in data set [3] is 14-3-3ζ/ERα(LBD_F) complex with CRL2^VHL (Homo sapiens, UniProt P03372+P40337+P63104, F591R/P592R/S305A). The data set can be described thus: In vitro ubiquitination assay (SDS-PAGE, western blot, Alexa Fluor 488 ubiquitin). The data set is classed as biochemical. Particulars: for ubiquitination of the 14-3-3ζ/ERα(LBD_F) complex: Coomassie SDS–PAGE, quantified at 15 min. Here is the method:
Briefly, the 14-3-3ζ/ERα^(LBD_F) complex was incubated with recombinantly expressed and purified UBE1, UBE2D2, UBE2R1, CRL2^VHL and ubiquitin in the presence of ^MGPROTACs and analysed time-dependently using Coomassie-stained SDS–PAGE (Fig. 6a). Ubiquitin conjugation was rapid with higher molecular weight species evident within 5 min (Supplementary Fig. 21) and were quantified at 15 min by Coomassie-stained SDS–PAGE (Fig. 6b, c and Supplementary Fig. 22).
UBE2D2 was selected as a representative of the promiscuous UBE2D family which is known to work with Cullin RING E3 ligases such as CRL2^VHL[48]–[52]. The UBE2R family is known to be more apt at extending polyubiquitin chains[49]–[51], however recent studies have shown that UBE2R1 and UBE2R2 are also capable of installing the first ubiquitin on degrader-targeted substrates with CRL2^VHL[53],[54].
The reaction was quenched with reducing SDS sample buffer. The protein species were resolved by SDS-PAGE on a 10% bis-tris NuPAGE gel using MOPS running buffer, run at 175 V for 50 min. […] Proteins were transferred to a nitrocellulose membrane either by wet transfer at 90 V for 90 min, or using an iBlot 2 Gel Transfer Device (Invitrogen). […] For an example of presentation of the full scan blots, see Supplementary Fig. S23 or the Source Data file.

The target in data set [4] is T1, NanoLuc–VHL (Homo sapiens, UniProt P40337). The data set can be described thus: cell-based. Particulars: IC50, VHL probe displacement (BRET), live (non-permeabilized) MCF-7 cells, 4 h. A general note: BRET reads energy transfer from a luciferase to a nearby fluorophore.
Data set [5] concerns the target T1, NanoLuc–VHL. As to conditions: MCF-7 cells, in-cell VHL target engagement.
In data set [6] the test system is 14-3-3/ERα complex. Description: 14-3-3 immunoprecipitation–mass spectrometry (IP–MS) in MCF-7 cells. As to conditions: MCF-7, 10 μM CV2a, 24 h; not statistically significant (p > 0.05).
Data set [7] deals with T2, 14-3-3σ/ERα complex (Homo sapiens, UniProt P03372+P31947). Description: FA compound titration to 14-3-3σ/ERα phosphopeptide complex. As to conditions: 1 µM 14-3-3σ and 10 nM ERα peptide. The data set is classed as binding.
The target of data set [8] is T2, 14-3-3σ/ERα complex. As to conditions: previously reported; read-out: EC50, binding to the 14-3-3σ/ERα complex; cited from earlier work.

Take `COCC1CCC2C1=CC1(C)C(=C(C(C)CNC(C)=O)CC1O)C(OC1OC(CO)C(O)C(O)C1O)C(O)C2C` (stereo not drawn): the “stabilization of the 14-3-3/ERα interaction” value in data set [1] was “stabilizes the 14-3-3/ERα interaction”.

In the case of `C=CC(C)(C)OCC1OC(OC2C3=C(C(C)CNC(=O)CCCCCCCCCCCC(=O)NC(C(=O)N4CC(O)CC4C(=O)NCc4ccc(-c5scnc5C)cc4)C(C)(C)C)CC(O)C3(C)C=C3C(COC)CCC3C(C)C2O)C(O)C(O)C1O` (stereo not drawn) [(S-OH)-CV2a], the “VCB recruitment to 14-3-3, TR-FRET signal” value in data set [2] is “no TR-FRET signal”. Besides, the “ubiquitination of the 14-3-3ζ/ERα(LBD_F) complex” value in data set [3] is “completely abrogated ubiquitination”. For the same molecule, in data set [1], the “stabilization of the 14-3-3/ERα complex with VCB, VCB recruitment” value is on record as “failed to recruit VCB” and the “stabilization of the 14-3-3/ERα interaction” value is reported as “stabilized the 14-3-3/ERα complex similarly to CV2a”.

As for `C=CC(C)(C)OCC1OC(OC2C3=C(C(C)CNC(=O)CCC(=O)NC(C(=O)N4CC(O)CC4C(=O)NCc4ccc(-c5scnc5C)cc4)C(C)(C)C)CC(O)C3(C)C=C3C(COC)CCC3C(C)C2O)C(O)C(O)C1O` (stereo not drawn) [CV0a], the IC50 in data set [4] is more than 10000 nM. The “stabilization of the 14-3-3/ERα complex with VCB, VCB recruitment” value in data set [1] is “negatively cooperative”.

In the case of `C=CC(C)(C)OCC1OC(OC2C3=C(C(C)CNC(=O)CCCCCCCCCCCC(=O)NC(C(=O)N4CC(O)CC4C(=O)NCc4ccc(-c5scnc5C)cc4)C(C)(C)C)CC(O)C3(C)C=C3C(COC)CCC3C(C)C2O)C(O)C(O)C1O` (stereo not drawn) [CV2a], the “VCB recruitment to 14-3-3, TR-FRET signal” value in data set [2] was “unable to recruit VHL in the absence of ERα peptide; also recorded: extended recruitment window”. The “cell permeability” value in data set [5] is listed as “cell-permeable”. Also, in data set [6], the “ERα enrichment in the 14-3-3 pull-down” value is reported as ~ 2.5 fold. The “ubiquitination of the 14-3-3ζ/ERα(LBD_F) complex” value in data set [3] is on record as “robust polyubiquitination”. In addition, the “enhancement of ERα binding to 14-3-3, two-dimensional FA titration” value in data set [1] (CV2a titration in the absence of VCB) is given as “up to 2.5 fold”; in data set [1] (high CV2a and VCB concentrations) it was “over 23 fold”.

`C=CC(C)(C)OCC1OC(OC2C3=C(C(C)CNC(=O)CCOCCOCCOCCC(=O)NC(C(=O)N4CC(O)CC4C(=O)NCc4ccc(-c5scnc5C)cc4)C(C)(C)C)CC(O)C3(C)C=C3C(COC)CCC3C(C)C2O)C(O)C(O)C1O` (stereo not drawn) [CV2p]: in data set [7], the “binding to the 14-3-3/ERα complex” value is “highest apparent potency”. Moreover, the “ubiquitination of the 14-3-3ζ/ERα(LBD_F) complex” value in data set [3] was “robust polyubiquitination”. In addition, the “E2 requirement of ubiquitination” value in data set [3] (UBE2D2 vs UBE2R1) is given as “observed only with UBE2D2”. Further, in data set [3] (up to 24 h), the “ubiquitination of assembled complex vs apo-14-3-3” value is on record as “preferential ubiquitination of the assembled 14-3-3ζ/ERα^(LBD_F) complex over apo-14-3-3”.

As to `C=CC(C)(C)OCC1OC(OC2C3=C(C(C)CNC(=O)CCCCCCCCCCCCCCCCCC(=O)NC(C(=O)N4CC(O)CC4C(=O)NCc4ccc(-c5scnc5C)cc4)C(C)(C)C)CC(O)C3(C)C=C3C(COC)CCC3C(C)C2O)C(O)C(O)C1O` (stereo not drawn) [CV3a], in data set [2], the “VCB recruitment to 14-3-3, TR-FRET signal” value is given as “markedly reduced recruitment”. The “ubiquitination of the 14-3-3ζ/ERα(LBD_F) complex” value in data set [3] is listed as “robust polyubiquitination”.

As to `C=CC(C)(C)OC[C@H]1O[C@H](O[C@@H]2C3=C([C@H](C)CNC(C)=O)C[C@H](O)[C@]3(C)/C=C3/[C@@H](COC)CC[C@H]3[C@@H](C)[C@H]2O)[C@H](O)[C@@H](O)[C@@H]1O` [FC-NAc, 3′-deacetylated fusicoccin N-acetyl], in data set [8], the EC50 was 15 nM.

`CC(=O)N[C@H](C(=O)N1C[C@H](O)C[C@H]1C(=O)NCc1ccc(-c2scnc2C)cc1)C(C)(C)C` [VH032, reference compound]: the “binding to the 14-3-3/ERα complex” value in data set [7] is on record as “did not engage the 14-3-3/ERα complex”.
